In US6239297A, “Sphingosine derivatives and medicinal composition” (Takara Shuzo Co., Ltd., priority 1997, dated 2001):
Values after ≈ are worked out from the molar mass of the structure shown.

Columns and labels:
[1] = tested on: Cryptococcus neoformans TIMM 0354; assay: Antifungal activity: growth inhibition of Cryptococcus neoformans TIMM 0354 (serial two-fold dilution); format: cell-based; conditions: YNBG liquid medium, 2 days at 30° C.; for MIC: Cryptococcus neoformans, TIMM0354, 48 h, read-out: Antifungal activity MIC (minimum growth inhibitory concentration); for minimum growth sub-inhibitory concentration (minimum concentration causing partial growth inhibition; value in parentheses): printed in parentheses
Procedure: The test microorganism used was Cryptococcus neoformans TIMM 0354. YNBG liquid medium (Difco yeast nitrogen base 0.67%, glucose 1%) was used and the minimum growth inhibitory concentration […] was determined after culturing for 2 days at 30° C. in the presence of the serial two-fold dilution of the compound. The minimum growth sub-inhibitory concentration (μg/ml) was determined as the minimum concentration causing partial growth inhibition of the microorganism and also shown in Table 2 in parentheses.

[2] = tested on: mixed lymphocytes reaction (MLR), T cells from spleen cells of C57BL/6 mice and BALB/c mice; assay: Immunosuppressive activity: inhibition of mixed lymphocytes reaction (MLR); format: cell-based, mice (C57BL/6; conditions: Lymphocyte; mouse MLR, 50% inhibition
Text: We measured inhibitory activity of mixed lymphocytes reaction (MLR) and determined the 50% inhibitory activity. Lymphocytes used are T cells from spleen cells of C57BL/6 mice and BALB/c mice.

Row | Structure (SMILES) | MIC [1] [µg/mL] | IC50 [2] [µg/mL] | minimum growth sub-inhibitory concentration (minimum concentration causing partial growth inhibition; value in parentheses) [1] [µg/mL]
1 | CCCCCCCCCCCCCCCC(O)C(N)COC(=O)[C@@H](NC(=O)C(O)CO)C(C)C (some centres unmarked) [Compound (1)] | 50 (≈ 102 µM) | 3.25 (≈ 6.65 µM) | 25
2 | CCCCCCCCCCCCCC=CC(O)C(N)COC(=O)C(N)C(C)C (centres unmarked) [Compound (6)] | 50 (≈ 125 µM) | 1.55 (≈ 3.89 µM) | 25
3 | CCCCCCCCCCCCCCCC(O)C(N)C(=O)NC(C)C(=O)NC(C(=O)NC(CO)CO)C(C)C (centres unmarked) [Compound (8)] | – | 0.44 (≈ 0.787 µM) | 50

Continued, in another order:

Row | MIC [1] [µg/mL] | IC50 [2] [µg/mL] | Structure (SMILES) | minimum growth sub-inhibitory concentration (minimum concentration causing partial growth inhibition; value in parentheses) [1] [µg/mL]
4 | 25 (≈ 51.4 µM) | 1.86 (≈ 3.82 µM) | CCCCCCCCCCCCCC=CC(O)C(N)COC(=O)C(NC(=O)C(O)CO)C(C)C (centres unmarked) [Compound (2)] | 12.5
5 | 50 (≈ 129 µM) | 5 (≈ 12.9 µM) | CCCCCCCCCCCCCC=CC(O)C(N)COC(=O)C(O)CO (centres unmarked) [Compound (5)] | 25
